Laboratory results taken from patent US9029345B2, “Selective inhibitors of translesion DNA replication” (Case Western Reserve University, priority 2005, dated 2015).
One block for each molecule: values may come before it.

Experiments:
P-gp [1] = target: T1, P-gp (Homo sapiens, UniProt P08183); assay: vinblastine-stimulated ATP hydrolysis by purified P-gp membranes (32Pi release); assay type: biochemical; design: endogenous in cells
Protocol: (§1) The in vitro activity of the triphosphate of 5-CHInd (5-CHITP) against P-gp was evaluated through its ability to inhibit vinblastine-stimulated ATP hydrolysis. These experiments used purified P-gp membranes expressed and isolated in Sf9 insect cells (BD Biosciences). ATP hydrolysis was quantified by the amount of ^32Pi release from γ^32P-ATP as a function of time. Reactions containing vinblastine were initiated by the addition of membranes and quenched in trichloroacetic acid and ammonium heptamolybdate. Heptamolybdophosphoric acid was separated by organic phase extraction and the presence of ^32Pi was quantified by liquid scintillation counting. […] The inhibition of 5-CHITP is selective for P-gp as the ATPase activity of control Sf9 membranes is not inhibited whereas sodium orthovanadate inhibits by about 50%.

control Sf9 membranes = assay: ATPase activity of control Sf9 membranes; assay type: biochemical
Protocol: as §1

P-glycoprotein [2] = target: T2, P-glycoprotein (Homo sapiens, UniProt P08183); assay: export of Hoechst dye from CEM/VBL cells overexpressing P-gp; assay type: cell-based; conditions: sub-lethal concentration, compared to untreated CEM/VBL
T2 construct: endogenous in cells; host or cells: CEM/VBL (CEM-VBL) leukemia cells
Text: (§2) This was first determined using the NIMH Psychoactive Drug Screening Program (PDSP) which performs pharmacological and functional screens of novel compounds. This initial screening effort lead us to test the ability of 5-CHInd to block the export of Hoechst dye, a known substrate for P-gp. Control experiments verify that CEM cells not overexpressing p-glycoprotein show accumulation of the Hoechst dye as indicated by nuclear staining (FIG. 3A).

P-gp [3] = target: T1, P-gp; assay: intracellular [3H]-vinblastine accumulation and efflux in CEM-VBL cells; assay type: cell-based; design: endogenous in cells
Protocol: Intracellular drug accumulation studies use confluent CEM-C7 and CEM-VBL cells incubated with [^3H]-vinblastine (Moravek Biochemicals, Brea, Calif.) in the absence or presence of 5-CHInd. After attainment of equilibrium, cells are harvested and washed to remove any unbound [^3H]-vinblastine. Washed cells are then solubized and the retained radioactivity is quantified by liquid scintillation techniques. Measured radioactivity is normalized for protein content, and drug accumulation is expressed as a percentage of the vehicle control.
To measure the effect of 5-CHInd on the efflux of [^3H]-vinblastine, CEM-VBL cells are incubated with a sub-lethal dose of 5-CHInd or vehicle (DMSO) followed by the addition of a fixed concentration of [^3H]-vinblastine. After attainment of equilibrium, cells are washed and aliquots are analyzed for [^3H]-vinblastine accumulation at variable times (5 to 120 minutes). The efflux rate constant is obtained from a fit of the data to y=Ae^−kt where y is the amount of radioactivity at time t, A is maximal amplitude in accumulation, k is the efflux rate constant, and t is time.

CEM-C7 cells = assay: intracellular [3H]-vinblastine accumulation and efflux in CEM-C7 cells; assay type: cell-based; conditions: devoid of P-gp
P-gp [4] = target: T1, P-gp
P-glycoprotein [5] = target: T2, P-glycoprotein; assay: NIMH Psychoactive Drug Screening Program (PDSP) screen; conditions: first determined using PDSP
Text: as §2

CDKs = assay: flow cytometry, cell cycle; assay type: cell-based; conditions: preliminary flow cytometry data
SKOV3 cells = assay: potentiation of vinblastine in SKOV3 cells; assay type: cell-based; conditions: 25 or 50 μg/ml 5-CHInd with 0.5 or 1 μg/ml vinblastine
Protocol: (§3) The potentiation of vinblstine by 5-CHInd was also assessed in MDR negative cesll (SKOV3) and MDR positive SKOV/VBL cells by administering various concentrations of vinblastine and 5-CHInd to the cells. FIG. 6 is a graph illustrating the cytoxic effect of 25 μg/ml of 5-CHInd (CH25), 50 μg/ml of 5-CHInd (CH50), 0.5 μg/ml of vinblastine (VinB 0.5), 1 μg/ml of vinblastine (VinB 1), 25 μg/ml of 5-CHInd in combination with 0.5 μg/ml of vinblastine (CH25+VinB 0.5), 25 μg/ml of 5-CHInd in combination with 1 μg/ml of vinblastine (CH25+VinB 1), 50 μg/ml of 5-CHInd in combination with 0.5 μg/ml of vinblastine (CH50+VinB 0.5), and 50 μg/ml of 5-CHInd in combination with 1 μg/ml of vinblastine (CH50+VinB 1) administered respectively to SKOV3 and SKOV/VBL cells.

SKOV/VBL cells = assay: potentiation of vinblastine in SKOV/VBL cells; assay type: cell-based; conditions: 25 or 50 μg/ml 5-CHInd with 0.5 or 1 μg/ml vinblastine
Protocol: as §3

P-gp [6] = target: T1, P-gp; assay: control experiments: potentiation of other chemotherapeutic agents; conditions: does not inhibit P-gp

T1 sequence (P08183 whole entry): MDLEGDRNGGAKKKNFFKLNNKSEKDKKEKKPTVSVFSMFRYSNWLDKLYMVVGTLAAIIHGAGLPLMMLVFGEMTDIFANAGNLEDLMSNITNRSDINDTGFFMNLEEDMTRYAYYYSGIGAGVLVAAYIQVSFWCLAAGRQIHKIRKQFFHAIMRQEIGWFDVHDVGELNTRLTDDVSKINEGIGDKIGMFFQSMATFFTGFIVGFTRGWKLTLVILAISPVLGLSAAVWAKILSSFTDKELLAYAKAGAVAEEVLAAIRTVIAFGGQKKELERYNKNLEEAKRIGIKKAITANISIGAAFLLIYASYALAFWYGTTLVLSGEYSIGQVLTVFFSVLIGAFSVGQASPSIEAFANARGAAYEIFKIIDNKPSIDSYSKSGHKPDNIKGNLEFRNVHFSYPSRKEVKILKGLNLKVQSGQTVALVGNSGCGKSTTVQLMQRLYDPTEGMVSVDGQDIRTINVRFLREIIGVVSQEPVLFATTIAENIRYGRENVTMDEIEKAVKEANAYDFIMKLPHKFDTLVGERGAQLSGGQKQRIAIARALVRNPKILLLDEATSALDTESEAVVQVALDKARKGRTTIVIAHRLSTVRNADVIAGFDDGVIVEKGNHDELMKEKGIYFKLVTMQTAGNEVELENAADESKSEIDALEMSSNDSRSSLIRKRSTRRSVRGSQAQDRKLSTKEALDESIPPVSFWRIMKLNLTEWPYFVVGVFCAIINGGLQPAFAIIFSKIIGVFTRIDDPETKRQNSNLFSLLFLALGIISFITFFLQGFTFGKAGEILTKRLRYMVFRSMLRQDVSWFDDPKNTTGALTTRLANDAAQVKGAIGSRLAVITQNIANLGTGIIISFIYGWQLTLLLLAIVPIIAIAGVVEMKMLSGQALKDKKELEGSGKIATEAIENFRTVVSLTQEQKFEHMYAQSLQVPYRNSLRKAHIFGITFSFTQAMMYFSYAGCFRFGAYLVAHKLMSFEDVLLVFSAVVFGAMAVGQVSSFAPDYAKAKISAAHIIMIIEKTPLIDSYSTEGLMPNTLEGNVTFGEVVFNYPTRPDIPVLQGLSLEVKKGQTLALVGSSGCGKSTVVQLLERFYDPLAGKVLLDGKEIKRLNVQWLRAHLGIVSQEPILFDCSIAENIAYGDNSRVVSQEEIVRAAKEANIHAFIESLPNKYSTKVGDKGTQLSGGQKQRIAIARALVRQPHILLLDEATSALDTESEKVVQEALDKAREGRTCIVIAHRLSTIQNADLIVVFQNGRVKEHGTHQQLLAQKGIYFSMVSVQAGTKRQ
T2 sequence (P08183 whole entry): as above

inhibition of ATPase activity of P-gp (P-gp [1]; 50 μM): 52%
inhibition of ATPase activity of control Sf9 membranes (control Sf9 membranes; 5-CHITP): not inhibited
Compound: O=P(O)(O)OP(=O)(O)OP(=O)(O)OC[C@H]1O[C@@H](n2ccc3cc(C4CCCCC4)ccc32)C[C@@H]1O [5-CHITP]

Compound: OC[C@H]1OC(n2ccc3cc(C4CCCCC4)ccc32)C[C@@H]1O (some centres unmarked) [5-CHInd, 5-cylclohexyl-1-indolyl-2-deoxyriboside]
LD50 (leukemia cell lines): about 20 μg/mL
cytotoxic effect (flow cytometry, FIG. 2) (leukemia cell lines; leukemia cells, closely mimics staurosporine): rapid cytotoxic effect
accumulation of Hoechst dye (inhibition of P-gp export) (P-glycoprotein [2]): enhanced accumulation of the Hoechst dye
accumulation of [3H]-vinblastine (P-gp [3]): significant accumulation
rate constant for drug efflux (P-gp [3]; compared to vehicle-treated cells): decrease in rate constant for drug efflux
effect on accumulation or efflux of [3H]-vinblastine (CEM-C7 cells): no effect
potentiation of the effects of 5-fluorouracil (P-gp [4]): does not potentiate
potentiation of the effects of cisplatin (P-gp [4]): does not potentiate
potentiation of the effects of doxorobucin (P-gp [4]): potentiates
potentiation of the effects of paclitaxel (P-gp [4]): potentiates
inhibition of p-glycoprotein activity (P-glycoprotein [5]): can inhibit the activity of p-glycoprotein
cell cycle arrest (CDKs): induces cell cycle arrest
potentiation of vinblastine (FIG. 6) (SKOV3 cells): potentiation of vinblastine
potentiation of vinblastine (FIG. 6) (SKOV/VBL cells): potentiation of vinblastine

Compound: OC[C@H]1OC(n2ccc3cc(-c4ccccc4)ccc32)C[C@@H]1O (some centres unmarked) [5-PhInd]
cell death (leukemia cell lines; at the concentrations tested, data not shown): cause cell death

inhibition of ATPase activity of P-gp (P-gp [1]; 1 μM, compared with 52% by 50 μM 5-CHITP): comparable
inhibition of ATPase activity of control Sf9 membranes (control Sf9 membranes; sodium orthovanadate): about 50%
Compound: [Na+].[Na+].[Na+].[O]=[V]([O-])([O-])[O-] [sodium orthovanadate, reference compound]

Compound: CN[C@@H]1C[C@H]2O[C@@](C)([C@@H]1OC)n1c3ccccc3c3c4c(c5c6ccccc6n2c5c31)C(=O)NC4 [staurosporine]
action as potentiating agent (P-gp [6]): does not act as a potentiating agent
